The text below walks through data of patent US20070065385A1, “Cold production method for pearly lustre preparations containing alcohols” (Clariant International, Ltd., priority 2005, published 2007).

A short description of data set [1]: Degree of hydrolysis of stearoxytrimethylsilane to stearyl alcohol in ethanol/water at varying pH, by GC analysis. Conditions: for % Hydrolysis of Stearoxytrimethylsilane to Stearyl Alcohol: 25° C., 5 wt% in 90 wt% ethanol/5 wt% D.I. water. The format is physicochemical. An excerpt: The pearlescent effect of the present invention appears to be produced by the interaction of the siloxane compound, trimethylsilylalkylsilsesquioxane in the alcoholic hydrogel. It is believed that the trimethylsilylalkylsilsesquioxanes, such as stearoxytrimethylsilane, which is initially a liquid in anhydrous form, after dispersion in the alcoholic hydrogel, undergoes a degree of hydrolysis which results in the formation of finely dispersed crystals of pure stearyl alcohol in the alcoholic hydrogel. This process continues until the pearlescent appearance, or the desired degree of opacity is achieved. The degree of pearlescence or the density of the opacity can be controlled by controlling the amount of the siloxane and other components. The pH of the mixture influences the speed of the hydrolysis reaction. Preferably, the pH of the mixture of the alcoholic hydrogel and the trimethylsilylalkylsilsesquioxane is from 3 to 6.
The degree of hydrolysis of stearoxytrimethylsilane was determined in an ethanol/water mixture at varying pH levels ranging from 4.4 to 9.1. A mixture comprising 5 weight percent anhydrous stearoxytrimethylsilane (Available from Clariant Corp., as SILCARE 1 M71), 90 weight percent ethanol and 5 weight percent de-ionized water (D.I.) was subjected to various pH levels and the degree of hydrolysis to stearyl alcohol was determined by GC analysis.

The conditions of data set [2]: cited from earlier work.

Turning to `CCCCCCCCCCCCCCCCCCO[Si](C)(C)C` [Stearoxytrimethylsilane, stearoxytrimethylsilane], in data set [1] (below a pH of 6), the speed of hydrolysis result was “quickly hydrolyses”. In addition, the “% Hydrolysis of Stearoxytrimethylsilane to Stearyl Alcohol” value (shortened to “% Hydrolysis of Stearoxytrimethylsilane”) in data set [1] (pH (initial) 4.4, 2 Days) is reported as over 99%; in data set [1] (pH (initial) 4.4, 14 Days), over 99%; in data set [1] (pH (initial) 4.4, 15 minutes (initial)), over 99%; in data set [1] (pH (initial) 5.3, 2 Days), over 99%; in data set [1] (pH (initial) 5.3, 14 Days), over 99%; in data set [1] (pH (initial) 5.3, 15 minutes (initial)), over 99%. The “% Hydrolysis of Stearoxytrimethylsilane” value in data set [1] (pH (initial) 5.5, 2 Days) is given as 97%; in data set [1] (pH (initial) 5.5, 14 Days) it was over 99%; in data set [1] (pH (initial) 5.5, 15 minutes (initial)), 55%; in data set [1] (pH (initial) 6.2, 2 Days), 36%; in data set [1] (pH (initial) 6.2, 14 Days) it was 95%; in data set [1] (pH (initial) 6.2, 15 minutes (initial)), 6%. In addition, the “% Hydrolysis of Stearoxytrimethylsilane” value in data set [1] (pH (initial) 8.1, 2 Days) came to 10%; in data set [1] (pH (initial) 8.1, 14 Days) it was 48%; in data set [1] (pH (initial) 8.1, 15 minutes (initial)), 2%; in data set [1] (pH (initial) 9.1, 2 Days), 4%; in data set [1] (pH (initial) 9.1, 14 Days) it was 21%; in data set [1] (pH (initial) 9.1, 15 minutes (initial)), 2%.
With `CCCCCCCCCCCCCCCCCCO` [Stearyl alcohol], the solubility in alcohol entry in data set [2] (alcohol) is recorded as “soluble”. In addition, the solubility in water result in data set [2] (water) is listed as “insoluble”.
